Laboratory results reported in US20050238734A1, “Detection of nitrosylated proteins” (University of Vermont and State Agricultural College, priority 2004, published 2005).

How the values were obtained:
C10 cells = experiment: In situ detection of S-nitrosylated proteins in intact cells (biotin derivatization, streptavidin-FITC, confocal microscopy); type: cell-based, mouse
Procedure: A line of spontaneously transformed mouse lung alveolar type II epithelial cells (C10) was used in some experiments, as described below. C10 cells were cultured in CMRL1066 medium containing 10% fetal bovine serum (FBS, GIBCO). In experiments involving microscopic analysis, the cells were grown on glass cover slips. At about one hour prior to exposure to a test agent, the medium was switched to phenol red free DMEM/F12 containing 0.5% FBS. Some cells were exposed to S-nitroso-glutathione (GSNO) or S-nitroso-N-acetyl penicillamine (SNAP) for about 1 hour, in the presence of an equimolar concentration of freshly prepared L-cysteine. To monitor S-nitrosylation in response to NOS2 activation, the cells were treated with 10 ng/ml TNF alpha (TNFα) and 100 U/ml interferon gamma (IFNγ), for about 24 hours. Incubation with L-N-monomethyl arginine (L-NMMA) for about 16 hours was used to inhibit endogenous NO production and D-NMMA (D-N-monomethyl arginine) was used as a control. Nuclear export was blocked by leptomycin B (5 ng/ml, exposure for about 12 hours). All experiments were performed in duplicate and were repeated at least three times.
To evaluate the localization of S-nitrosylated proteins in intact cells, the biotin derivatization method described above was used in combination with fluorophore labeling and visualized using confocal microscopy. Cells grown on cover slips were rinsed with PBS containing 0.1 mM EDTA and 0.01 mM neocuproine, and fixed in 4% PFA (paraformaldehyde) for 20 minutes at RT. The cells were permeabilized, and protein SH groups were blocked using HEN buffer containing 2.5% SDS, 0.5% CHAPS, and 20 mM MMTS (methylmethanethiosulfonate) for 20 min at 55° C. with constant shaking. After removal of MMTS, the cells were incubated with 1 mM sodium ascorbate and 0.4 mM biotin-HPDP (N-[6-(biotinamido)hexyl]-3′-(2′-pyridyldithio)propionamide) for about an hour at RT, and the cover slips were then incubated overnight with streptavidin-FITC at 4° C. Blocking was performed using 20 mM NEM for 30 minutes at 4° C., followed by incubation with 0.05 mM MPB and 1 mM sodium ascorbate for 1 hour at RT. The nuclei were stained with 10 microgram/ml PI (propidium iodide) for 30 minutes at RT. The cells were analyzed by confocal microscopy (magnification 40×) using an Olympus BX50 microscope coupled to a Bio-Rad (Hercules Calif.) MRC 1024 confocal scanning laser microscope system. Control experiments were also performed in which blocking of SH groups was omitted, or in which 100 micromolar HgCl2 was added prior to blocking of SH groups with MMTS or NEM. To assess the contribution of endogenous biotinylated proteins, the biotin-label was omitted in some control cover slips. All manipulations were performed in the dark. […]

IKKβ [1] = target: T1, IKKβ (Homo sapiens, UniProt O14920); experiment: SNO content of immunopurified IKKβ by chemiluminescence; type: cell-based; conditions: Jurkat T cells exposed to L-CSNO and TNFα
T1 construct: IKKβ was immunopurified from TNFα-stimulated Jurkat T cells treated with SNO; endogenous in cells; host or cells: Jurkat T cells
T1 sequence (O14920 1-756): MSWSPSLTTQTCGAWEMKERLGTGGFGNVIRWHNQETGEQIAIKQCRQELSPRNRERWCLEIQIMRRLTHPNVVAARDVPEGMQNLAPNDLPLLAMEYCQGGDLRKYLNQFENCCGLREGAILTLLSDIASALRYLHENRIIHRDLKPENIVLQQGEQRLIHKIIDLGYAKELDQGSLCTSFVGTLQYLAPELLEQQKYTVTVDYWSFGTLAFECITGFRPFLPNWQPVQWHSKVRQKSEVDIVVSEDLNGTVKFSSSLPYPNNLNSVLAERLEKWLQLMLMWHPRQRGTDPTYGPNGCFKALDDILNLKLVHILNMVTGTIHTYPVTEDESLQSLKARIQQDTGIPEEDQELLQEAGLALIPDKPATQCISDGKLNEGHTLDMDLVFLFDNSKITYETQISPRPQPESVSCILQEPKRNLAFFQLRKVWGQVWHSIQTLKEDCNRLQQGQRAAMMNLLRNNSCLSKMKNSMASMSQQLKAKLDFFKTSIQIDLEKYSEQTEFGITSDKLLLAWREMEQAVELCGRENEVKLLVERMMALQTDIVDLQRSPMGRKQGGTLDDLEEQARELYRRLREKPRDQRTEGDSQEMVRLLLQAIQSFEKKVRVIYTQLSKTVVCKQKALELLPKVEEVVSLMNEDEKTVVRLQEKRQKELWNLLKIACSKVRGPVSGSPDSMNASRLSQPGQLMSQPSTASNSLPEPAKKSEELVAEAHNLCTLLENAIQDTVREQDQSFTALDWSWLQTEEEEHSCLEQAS
Procedure: The total cellular SNO concentration (protein-bound plus free) was measured in lysates of cells treated with SNO in presence or absence of L-or D-cys. After 3 washes with PBS, the cells were lysed in the same buffer as was used for the biotin switch method. […] The amount of NO released from samples was estimated from a standard curve generated by injection of L-CSNO stock solutions. IKKβ was immunoprecipitated from Jurkat T cell lysates, using a monoclonal IKKβ antibody and protein G-agarose beads. After washing the immunoprecipitates 3 times with HEN buffer containing 50 mM NaCl to minimize co-associating proteins, the antigen-antibody complexes were removed from the beads by three 10 min incubations in 50 μl of 100 mM glycine pH 3.0 at 4° C. The eluates were treated with 0.6% sulfanilamide prior to the assessment of the SNO content via chemiluminescence, as described before. As a control, some lysates or immunoprecipitates were treated with 4.4 mM HgCl2 for 10 min at RT, followed by 20 min incubation at 4° C., and 10 min incubation with sulfanilamide at RT. To confirm that IKKβ was the predominant protein immunoprecipitated under these conditions, Laemmli sample buffer was added to the immunoprecipitate, samples were boiled, and evaluated on a silver-stained gel. All experiments were repeated at least two times and similar results were obtained. […]

IKKβ [2] = target: T1, IKKβ; experiment: Biotin derivatization (biotin switch) of IKKβ in Jurkat T cells; type: cell-based
Procedure: The detection of S-nitrosylated proteins was performed via a biotin switch method as follows. Following treatments, the cells were rinsed 2 times with PBS containing 0.1 mM EDTA and 0.01 mM neocuproine and lysed in HEN buffer (25 mM HEPES, pH 7.7, 0.1 mM EDTA, 0.01 mM neocuproine) containing 0.5% CHAPS, 0.1% SDS and 20 mM N-ethylmaleimide (NEM) at 4° C. for 30 min in order to block free thiols. The lysates were cleared by centrifugation at 14,000 g, 4° C. for 10 min and excess NEM was removed by protein precipitation using cold acetone. The protein pellets were resuspended in HENS buffer (HEN 1% SDS), and the SNO bonds were decomposed by adding 20 mM sodium ascorbate. The resulting free thiols were reacted with 0.05 mM sulfhydryl-specific biotinylating agent, N-(3-malemidylpropionyl)biocytin (MPB, Molecular Probes) for 30 min at room temperature, resulting in biotinylation of SNO. […] Biotinylated IKKβ was detected on the membrane using horseradish peroxidase-linked streptavidin. […]
A biotin derivatization method was also used to assess whether the IKKβ subunit is directly targeted by S-nitrosylation. […] IKKβ was subsequently immunoprecipitated from the lysates and its biotinylation was assessed using streptavidin-HRP on a western blot. […]

wt HA-IKKβ = target: T2, wt HA-IKKβ (Homo sapiens, UniProt O14920); experiment: TNFα-stimulated kinase activity of transfected wt HA-IKKβ in C10 cells; type: cell-based; conditions: TNFα-stimulated enzymatic activity
T2 construct: expressed in transfected cells; host or cells: C10 mouse lung epithelial cells; plasmid a gift of Dr. Michael Karin
T2 sequence (O14920 1-756): T1 sequence (O14920 1-756)
Procedure: The cells were exposed to test agents and at indicated times, transferred to ice, washed twice with cold PBS, and lysed in buffer containing 50 mM HEPES, 150 mM NaCl, 1 mM EDTA, 2 mM MgCl2, 10 mM Na3VO4, 1 mM phenylmethylsulfonyl fluoride, 0.1% Nonidet P-40, 10 μg/ml leupeptin, 1% aprotinin, 250 μM DTT and 100 μM NaF. The lysates were cleared by centrifugation at 14,000 rpm, 4° C. for 10 min. Protein concentrations were determined and the IKK complex was immunoprecipitated with an IKKγ antibody (Santa Cruz) at 4° C. for 1.5 h using protein G agarose beads. The precipitates were washed once with lysis buffer and twice with kinase buffer (20 mM HEPES, 20 mM β-glycerolphosphate, 1 mM MnCl2, 5 mM MgCl2, 2 mM NaF and 250 μM DTT). The kinase reaction was performed using 1 μg glutathione-S transferase (GST)-IκBα as a substrate, provided by Dr. Rosa Ten (Mayo Clinic, Rochester, Minn.), and 5 μCi γ^32P-adenosine triphosphate at 30° C. for 30 min. Kinase assays were performed in presence of 250 μM DTT, the minimal concentration necessary in order to maintain maximal TNFα-stimulated activity. The reactions were stopped by the addition of 2× Laemmli sample buffer. […] In separate experiments, the immunoprecipitated IKK complex or JNK1 from TNFα-stimulated cells was exposed to SNAP or GSNO for 15 min in lysis buffer in vitro prior to assessment of kinase activity. […]

RelA (p65) = RelA (p65) immunostaining, cytoplasmic versus nuclear localization; type: cell-based, mouse
Procedure: FIGS. 4G and 4H illustrates an assessment of the presence of cytoplasmic protein. C10 cells were mock-treated (sham) (FIG. 4G) or stimulated with TNF alpha for 30 minutes, and submitted to the biotinylation protocols similar to those described above with respect to FIG. 1. RelA (p65) was detected using specific antibodies (Santa Cruz).
FIGS. 6A and 6C illustrate cells that were incubated with leptomycin B (5 ng/ml) for about 12 hours, followed by biotin derivatization, incubation with streptavidin-FITC, and analysis by confocal microscopy. […] These findings thus support the notion that S-nitrosylation occurs in proteins that are regulated by nuclear trafficking.
To ensure that the cytoplasmic targets were still present after this procedure, the presence of RelA was evaluated in sham or TNF alpha-treated cells. RelA, a subunit of the transcription factor, nuclear factor kappa B, is normally present in the cytoplasm and is translocated into the nucleus upon exposure to TNF alpha. […] In fact, increased S-nitrosylation of cytoplasmic proteins was observed after induction of NOS2 activity.

For `OO` [H2O2, hydrogen peroxide], the “staining pattern (biotinylation)” value (C10 cells; 500 micromolar, 15 minutes) was “failed to alter”.
In the case of `N[C@@H](CSN=O)C(=O)O` [L-CSNO], the “SNO content of IKKβ” value (IKKβ [1]) is reported as “marked increase”, the “S-nitrosylation of IKKβ (biotinylation)” value (IKKβ [2]) is reported as “increase” and the “activity of wt HA-IKKβ” value (wt HA-IKKβ) is reported as “inhibited”.
`CC(=O)N[C@H](C(=O)O)C(C)(C)SN=O` [SNAP, S-nitroso-N-acetyl penicillamine] was tested, and the “biotinylation (S-nitrosylated proteins) in intact cells” value (C10 cells; 1 mM, 1 hour) was “enhanced”.
For `CCC(=C/[C@H](C)C/C=C/C(C)=C/[C@@H](C)C(=O)[C@@H](C)[C@H](O)[C@@H](C)C/C(C)=C/C(=O)O)/C=C/[C@@H]1OC(=O)C=C[C@@H]1C` [leptomycin B], the “biotinylation in the nuclear compartment” value (C10 cells; 5 ng/ml, about 12 hours) was “enhanced” and the “nuclear sequestration of RelA” value (RelA (p65); 5 ng/ml, about 12 hours) was “enhanced”.
For TNF alpha, the “RelA presence in nucleus” value (RelA (p65); 30 minutes, dual staining with PI) was “enhanced nuclear presence” and the “S-nitrosylation of IKKβ (biotinylation)” value (IKKβ [2]) was “decreased”.
